These results are taken from US12030897B2, “Pyrrolo[2,1-f][1,2,4]triazine derivatives serving as selective HER2 inhibitors and application thereof” (MEDSHINE DISCOVERY INC., priority 2018, dated 2024).

One test has as its target HER4 (ErbB4) (Homo sapiens (Human), UniProt Q15303). The experiment in a line: In vitro enzyme activity, HER4 (ErbB4), [γ-33P]ATP filter assay. Format: biochemical. The method, then: (§1) The object of this test is to detect the in vitro inhibitory activity of the compound against HER1 (ErbB1), HER2 (ErbB2) and HER4 (ErbB4). The enzymes used in this test were human ErbB1, ErbB2 and ErbB4. Eurofins Pharma Discovery Service provided the activity detection method, and the results of the inhibitory activity of the tested compound against HER1, HER2 and HER4 were shown in Table 1.
(§2) Experimental Steps and Methods (96-Well Plate):
(§3) 5-fold diluted tested compound buffer (5 μL), peptide substrate poly(Glu, Tyr) (4:1) (2.5 μL), ErbB (4-20 ng, 2.5 μL), MnCl2 (50 mM, 1.25 μL), dH2O (3.75 μL) and [γ-^33P]ATP (10 μL) were added, and incubated at 30° C. for 10 min. 3% phosphoric acid was added to terminate the reaction, and 10 μL of the specimen was transferred to Filtermate A. The filter was washed with 75 mM phosphoric acid for three times and methanol once, and transferred to a sealed plastic bag, and a scintillation fluid mixture (4 mL) was added, The intensity of the emitted photons was detected on the scintillation luminescence counter. The photon intensity of the enzyme sample was compared with the photon intensity of the internal control sample, and the level of photon intensity reflected the strength of the tyrosine kinase activity.

The target in the next test is HER2 (ErbB2) (Homo sapiens (Human), UniProt P04626). The experiment in a line: In vitro enzyme activity, HER2 (ErbB2), [γ-33P]ATP filter assay. Format: biochemical. Here is the method: as §1, §2, §3
Another test deals with HER1 (ErbB1) (Homo sapiens (Human), UniProt P00533). In words: In vitro enzyme activity, HER1 (ErbB1), [γ-33P]ATP filter assay. Format: biochemical. Here is the method:
The object of this test is to detect the in vitro inhibitory activity of the compound against HER1 (ErbB1), HER2 (ErbB2) and HER4 (ErbB4). The enzymes used in this test were human ErbB1, ErbB2 and ErbB4.
as §2, §3

Another test relates to BT-474 cell. The experiment in a line: Cell proliferation inhibitory activity, Cell-Titer-Glo, BT-474. The test is classed as cell-based. To be noted: Homo sapiens, BT-474, 72 h; 3 days incubation. From the text: (§4) Experiment object: to detect the inhibitory activity of the tested compound on cell proliferation.
(§5) Experimental principle: the luciferase in the Cell-Titer-Glo reagent uses luciferin, oxygen and ATP as reaction substrates to produce oxyluciferin and release energy in the form of light. Since the luciferase reaction requires ATP, the total amount of light produced by the reaction is proportional to the total amount of ATP that reflects cell viability.
(§6) Experimental Materials: • cell lines: NCI-N87 cell line (ATCC-CRL-5822); BT-474 cell line (ATCC-HTB-20) • Cell culture medium: RPMI 1640 medium (Invitrogen #22400-105; 10% serum Invitrogen #10090148; L-glutamine 1×, Gibco #25030-081; double antibody Hyclone #SV30010) • CellTiter-Glo® luminescence cell viability detection kit (Promega #G7573) • 384-well cell culture plate (Greiner #781090) • Compound plate (LABCYTE #LP-0200) • CO2 incubator (Thermo #371) • Vi-cell cell counter (Beckman Coulter) • Pipette (Eppendorf) • Pipette (Greiner) • Pipetting gun (Eppendorf) • Multifunctional microplate reader (Envision Reader) • ECHO Liquid-handling workstation (Labcyte-ECHO555)
(§7) The cells were inoculated in a 384-well plate with a density of 1000 cells per well and 25 μL per well. The edge wells were not inoculated with cells, and was supplemented with 25 μL of phosphate buffer.
(§8) The compound was added to the plate with 9 μL per well.
(§9) (2) The compound was diluted with ECHO liquid-handling workstation, and each well of the cell plate was added with 125 nL of compound. Each well of the cell wells of columns 2 and 23 was added with 125 nL of DMSO, and each well of the Media wells of columns 1 and 24 was added with 125 nL of DMSO.
(§10) (3) Each well of the cell plate was supplemented with 25 μL of culture medium, and the final volume in each well of the cell plate was 50 μL. The concentration of the compound was 10 μM, which was subjected to 3 fold dilution to obtain 10 concentrations. Each concentration was duplicated in left and right wells, and the final DMSO concentration was 0.25%.
(§11) 2.3 After adding the compound, it was centrifuged at 1000 rpm for 1 min. The cell plate was placed in a 37° C., 5% CO2 incubator for 3 days.
(§12) The cell plate was taken from the incubator and equilibrated at room temperature for 30 min. 25 μL of Cell-Titer-Glo reagent was added to each well, shaken for 1 min to make it thoroughly mixed, and centrifuged at 1000 rpm for 1 min. After 10 min, the plate was read on PerkinElmer Envision, and the […] reading time was set to 0.2 seconds.

The test system of the next test is NCI-N87 cell. In words: Cell proliferation inhibitory activity, Cell-Titer-Glo, NCI-N87. Format: cell-based, human. To be noted: 3 days incubation.
Excerpt: as §4, §5, §6, §7, §8, §9, §10, §11, §12

Test [1] relates to human breast cancer BT-474 cell subcutaneous xenograft tumor. The experiment in a line: In vivo efficacy, BT-474 subcutaneous xenograft tumor model. The settings on record: BT-474 xenograft, 100 mg/kg. Also noted: species or system BALB/c nude mice. Here is the method:
Experiment object: to study the in vivo efficacy of the tested compound in human breast cancer BT-474 cell BALB/c nude mouse subcutaneous xenograft tumor model.
Experimental animals: female BALB/c nude mice, 6 to 8 weeks old, weight: 18 to 22 grams; Supplier Beijing Weitonglihua Laboratory Animal Technology Co., Ltd.
Human breast cancer BT474 cells were cultured in a monolayer in vitro. The culture conditions were: ATCC Hybri-Care Medium with 1.5 g/L sodium bicarbonate, 10% fetal bovine serum, 100 U/mL penicillin and 100 μg/mL streptomycin, and 37° C., 5% CO2 incubator. Conventional digestion treatment with pancreatin-EDTA for passage was carried out twice a week. When the cell saturation was 80% to 90%, and the number reached the requirement, the cells were collected, counted and inoculated.
0.2 mL (1×10^7 cells) of BT474 cells (with matrigel in a volume ratio of 1:1) were subcutaneously inoculated on the right back of each mouse. The grouping and administration were started when the average tumor volume reached about 168 mm^3. (Estrogen tablets were inoculated three days before cell inoculation).
7.3 the Preparation of the Tested Samples, Tumor Measurement, Experimental Index and Statistical Analysis were the Same as in Experimental Example 6.

SMILES strings stand for the structures. pIC50: −log10 of the molar value. “And” between values parts separate entries of the source, which are not always exact repeats. Identical values can stand only once. Some results are limits rather than exact numbers.

Chain of HER4 (ErbB4) (Q15303 26-1308): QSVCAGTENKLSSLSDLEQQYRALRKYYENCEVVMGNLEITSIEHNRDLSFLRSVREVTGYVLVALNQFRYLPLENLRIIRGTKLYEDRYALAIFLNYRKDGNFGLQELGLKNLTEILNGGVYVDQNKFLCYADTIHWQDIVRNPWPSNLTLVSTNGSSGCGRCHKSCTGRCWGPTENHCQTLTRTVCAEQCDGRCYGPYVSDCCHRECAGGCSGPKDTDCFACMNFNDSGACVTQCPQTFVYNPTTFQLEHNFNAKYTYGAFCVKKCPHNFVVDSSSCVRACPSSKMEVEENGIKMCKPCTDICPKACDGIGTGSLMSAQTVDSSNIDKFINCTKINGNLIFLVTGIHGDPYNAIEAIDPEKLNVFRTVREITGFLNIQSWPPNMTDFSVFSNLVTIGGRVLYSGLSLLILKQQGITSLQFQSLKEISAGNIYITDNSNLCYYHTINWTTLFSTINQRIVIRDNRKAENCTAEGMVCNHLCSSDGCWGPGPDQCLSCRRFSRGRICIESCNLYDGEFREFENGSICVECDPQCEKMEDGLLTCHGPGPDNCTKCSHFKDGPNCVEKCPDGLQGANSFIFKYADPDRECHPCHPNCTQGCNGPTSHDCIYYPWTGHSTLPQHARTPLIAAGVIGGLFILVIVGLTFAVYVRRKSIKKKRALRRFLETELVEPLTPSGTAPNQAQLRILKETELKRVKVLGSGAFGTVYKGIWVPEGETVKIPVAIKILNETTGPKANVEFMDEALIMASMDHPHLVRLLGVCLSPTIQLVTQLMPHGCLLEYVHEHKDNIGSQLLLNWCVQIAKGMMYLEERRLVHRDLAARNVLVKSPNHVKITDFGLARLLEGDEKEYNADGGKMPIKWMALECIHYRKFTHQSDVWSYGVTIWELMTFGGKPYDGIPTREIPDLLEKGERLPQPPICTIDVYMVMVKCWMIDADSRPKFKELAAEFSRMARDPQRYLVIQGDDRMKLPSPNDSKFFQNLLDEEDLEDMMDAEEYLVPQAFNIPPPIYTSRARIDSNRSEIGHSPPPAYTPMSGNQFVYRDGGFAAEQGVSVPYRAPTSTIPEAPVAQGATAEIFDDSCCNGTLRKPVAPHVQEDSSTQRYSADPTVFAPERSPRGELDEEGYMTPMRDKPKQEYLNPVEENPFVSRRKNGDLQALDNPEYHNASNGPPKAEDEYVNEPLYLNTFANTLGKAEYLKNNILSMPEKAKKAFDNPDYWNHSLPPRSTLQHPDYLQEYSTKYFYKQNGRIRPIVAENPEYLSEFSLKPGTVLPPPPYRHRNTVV
Chain of HER1 (ErbB1) (P00533 25-1210): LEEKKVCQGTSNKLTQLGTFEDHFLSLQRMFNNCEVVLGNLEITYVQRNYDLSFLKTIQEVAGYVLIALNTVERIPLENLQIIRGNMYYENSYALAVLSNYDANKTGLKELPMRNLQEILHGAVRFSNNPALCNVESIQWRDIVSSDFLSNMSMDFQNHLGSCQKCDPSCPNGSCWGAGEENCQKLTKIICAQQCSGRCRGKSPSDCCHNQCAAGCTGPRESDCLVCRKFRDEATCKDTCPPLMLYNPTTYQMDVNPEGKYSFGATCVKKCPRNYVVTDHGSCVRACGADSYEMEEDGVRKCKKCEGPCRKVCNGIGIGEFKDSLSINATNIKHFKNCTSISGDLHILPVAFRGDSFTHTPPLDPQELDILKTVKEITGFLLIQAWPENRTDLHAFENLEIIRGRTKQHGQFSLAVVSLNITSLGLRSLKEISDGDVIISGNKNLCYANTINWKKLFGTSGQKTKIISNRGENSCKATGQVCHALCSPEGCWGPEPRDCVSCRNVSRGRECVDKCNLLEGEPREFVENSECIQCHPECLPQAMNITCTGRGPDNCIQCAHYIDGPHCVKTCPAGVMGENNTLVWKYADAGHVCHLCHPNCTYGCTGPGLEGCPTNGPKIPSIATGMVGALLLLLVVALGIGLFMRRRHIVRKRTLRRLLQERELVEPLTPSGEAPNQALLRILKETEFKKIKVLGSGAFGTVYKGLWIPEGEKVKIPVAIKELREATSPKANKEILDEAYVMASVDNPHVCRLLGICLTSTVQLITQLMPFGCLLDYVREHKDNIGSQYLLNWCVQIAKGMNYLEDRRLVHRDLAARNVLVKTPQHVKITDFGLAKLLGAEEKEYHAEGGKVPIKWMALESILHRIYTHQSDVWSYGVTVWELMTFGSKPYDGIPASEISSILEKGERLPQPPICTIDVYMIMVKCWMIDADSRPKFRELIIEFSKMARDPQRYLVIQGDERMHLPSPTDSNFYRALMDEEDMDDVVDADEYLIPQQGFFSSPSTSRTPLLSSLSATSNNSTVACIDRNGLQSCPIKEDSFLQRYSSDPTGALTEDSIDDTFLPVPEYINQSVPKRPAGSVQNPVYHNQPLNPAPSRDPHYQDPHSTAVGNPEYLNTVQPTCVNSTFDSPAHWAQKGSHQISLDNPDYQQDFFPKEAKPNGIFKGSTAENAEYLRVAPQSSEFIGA
Chain of HER2 (ErbB2) (P04626 23-1255): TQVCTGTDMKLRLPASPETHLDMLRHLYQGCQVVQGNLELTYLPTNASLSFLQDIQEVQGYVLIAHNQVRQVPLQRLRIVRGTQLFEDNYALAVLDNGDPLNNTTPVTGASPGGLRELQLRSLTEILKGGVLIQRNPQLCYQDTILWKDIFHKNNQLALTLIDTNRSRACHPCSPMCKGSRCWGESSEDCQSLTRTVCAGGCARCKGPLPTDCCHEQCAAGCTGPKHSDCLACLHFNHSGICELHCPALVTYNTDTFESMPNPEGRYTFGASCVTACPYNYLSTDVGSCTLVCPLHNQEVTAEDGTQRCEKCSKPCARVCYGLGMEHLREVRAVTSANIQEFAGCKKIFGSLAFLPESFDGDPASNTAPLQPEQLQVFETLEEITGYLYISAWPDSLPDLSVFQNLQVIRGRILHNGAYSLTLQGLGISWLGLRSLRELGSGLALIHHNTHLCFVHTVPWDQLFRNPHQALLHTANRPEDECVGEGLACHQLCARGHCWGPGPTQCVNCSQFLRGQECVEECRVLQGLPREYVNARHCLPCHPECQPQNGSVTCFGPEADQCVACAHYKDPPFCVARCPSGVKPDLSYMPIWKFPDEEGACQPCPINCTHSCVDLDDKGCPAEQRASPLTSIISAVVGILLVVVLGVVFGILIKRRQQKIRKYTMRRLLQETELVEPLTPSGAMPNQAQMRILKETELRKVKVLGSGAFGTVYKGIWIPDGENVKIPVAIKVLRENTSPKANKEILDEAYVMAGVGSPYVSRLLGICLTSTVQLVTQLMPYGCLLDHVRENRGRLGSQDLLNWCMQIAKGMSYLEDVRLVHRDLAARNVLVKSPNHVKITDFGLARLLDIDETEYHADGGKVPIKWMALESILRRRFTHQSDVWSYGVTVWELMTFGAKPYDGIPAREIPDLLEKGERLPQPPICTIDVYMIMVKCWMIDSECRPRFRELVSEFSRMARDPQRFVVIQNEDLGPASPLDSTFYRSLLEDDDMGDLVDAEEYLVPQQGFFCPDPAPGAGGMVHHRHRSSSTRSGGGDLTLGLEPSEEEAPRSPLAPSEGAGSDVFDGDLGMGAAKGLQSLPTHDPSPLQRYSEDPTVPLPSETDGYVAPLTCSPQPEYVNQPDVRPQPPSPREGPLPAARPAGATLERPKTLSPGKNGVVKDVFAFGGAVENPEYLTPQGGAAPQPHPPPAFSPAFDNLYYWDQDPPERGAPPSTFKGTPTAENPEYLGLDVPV

By pIC50 is commonly meant the IC50 on a negative log10 scale, so that one unit is a factor of ten. The low end stands for a large IC50, the high end for a small IC50. With `Cc1cc(Nc2ncnn3ccc(CN4CCNCC4)c23)ccc1Oc1ccn2ncnc2c1` [Example 1], the results for the pIC50 against HER4 (ErbB4), on HER2 (ErbB2) and against HER1 (ErbB1) were < 6.00, 7.62 and < 6.00, respectively.
As for `Cc1cc(Nc2ncnn3ccc(CN4CCCNCC4)c23)ccc1Oc1ccn2ncnc2c1` [Example 5], the pIC50 with BT-474 cell is 7.01; against HER4 (ErbB4), < 6.00; against HER2 (ErbB2) it was 7.80; in the test with NCI-N87 cell (Homo sapiens, NCI-N87, 72 h) it was 7.23; against HER1 (ErbB1), < 6.00.
Consider `Cc1cc(Nc2ncnn3ccc(CN4[C@@H]5CC[C@H]4C[C@H](O)C5)c23)ccc1Oc1ccn2ncnc2c1` [Example 6], for which the pIC50 is 6.82 on HER4 (ErbB4); 7.74 at HER2 (ErbB2); 8.40 with NCI-N87 cell (Homo sapiens, NCI-N87, 72 h); 6.13 against HER1 (ErbB1).
Regarding `Cc1cc(Nc2ncnn3ccc(CN4C[C@H]5CC[C@@H](C4)[C@H]5N)c23)ccc1Oc1ccn2ncnc2c1` [Example 7], the pIC50 on HER4 (ErbB4) was < 6.00; at HER2 (ErbB2), 8.00; in the test with NCI-N87 cell (Homo sapiens, NCI-N87, 72 h), 7.57.
For the molecule `Cc1cc(Nc2ncnn3ccc(CN4[C@@H]5CC[C@H]4C[C@H](N)C5)c23)ccc1Oc1ccn2ncnc2c1` [Example 8], the pIC50 is 6.74 at HER4 (ErbB4); 8.00 on HER2 (ErbB2); 7.70 in the test on NCI-N87 cell (Homo sapiens, NCI-N87, 72 h); 6.41 at HER1 (ErbB1).
On to `Cc1cc(Nc2ncnn3ccc(CN4CCC(C)(N)CC4)c23)ccc1Oc1ccn2ncnc2c1` [Example 9], for which the negative-log IC50 (pIC50) was 6.70 on HER4 (ErbB4); 7.96 against HER2 (ErbB2); 8.10 with NCI-N87 cell (Homo sapiens, NCI-N87, 72 h); 6.49 against HER1 (ErbB1).
Consider `Cc1cc(Nc2ncnn3ccc(CN4CC(O)C4)c23)ccc1Oc1ccn2ncnc2c1` [Example 12], for which the negative logarithm of the IC50 (pIC50) in the test on NCI-N87 cell (Homo sapiens, NCI-N87, 72 h) is 7.28.
As for `Cc1cc(Nc2ncnn3ccc(CN4CCC(O)CC4)c23)ccc1Oc1ccn2ncnc2c1` [Example 16], the pIC50 against HER4 (ErbB4) was 6.27; on HER2 (ErbB2), 8.15; in the test with NCI-N87 cell (Homo sapiens, NCI-N87, 72 h), 7.42; at HER1 (ErbB1), 6.06.
As to `COCCNC1CCN(Cc2ccn3ncnc(Nc4ccc(Oc5ccn6ncnc6c5)c(C)c4)c23)CC1` [Example 18], the pIC50 was < 6.00 against HER4 (ErbB4); 8.40 at HER2 (ErbB2); 7.19 in the test with NCI-N87 cell (Homo sapiens, NCI-N87, 72 h); 6.29 against HER1 (ErbB1).
In the test on NCI-N87 cell (Homo sapiens, NCI-N87, 72 h), `CCNC1CCN(Cc2ccn3ncnc(Nc4ccc(Oc5ccn6ncnc6c5)c(C)c4)c23)CC1` [Example 19] had a negative logarithm of the IC50 (pIC50) of 7.64.
As for `COCC1(N)CCN(Cc2ccn3ncnc(Nc4ccc(Oc5ccn6ncnc6c5)c(C)c4)c23)CC1` [Example 20], the negative logarithm of the IC50 (pIC50) in the test on BT-474 cell was 7.06; against HER4 (ErbB4) it was 6.64; against HER2 (ErbB2) it was 8.15; with NCI-N87 cell (Homo sapiens, NCI-N87, 72 h) it was 8.05; against HER1 (ErbB1), 6.78.
`Cc1cc(Nc2ncnn3ccc(CN4CC[C@H](N)[C@@H](F)C4)c23)ccc1Oc1ccn2ncnc2c1` [Example 21]: the pIC50 on HER4 (ErbB4) is < 6.00; at HER2 (ErbB2) it was 8.40; in the test on NCI-N87 cell, 7.72; at HER1 (ErbB1) it was 6.04.
As to `Cc1cc(Nc2ncnn3ccc(CN4CC[C@H](N)[C@@H](F)C4)c23)ccc1Oc1ccn2ncnc2c1` [Example 23], the pIC50 against HER4 (ErbB4) was 7.39; against HER2 (ErbB2), 8.70; in the test on NCI-N87 cell, 8.52; at HER1 (ErbB1), 7.21.
Regarding `CO[C@H]1CN(Cc2ccn3ncnc(Nc4ccc(Oc5ccn6ncnc6c5)c(C)c4)c23)CC[C@@H]1N` [Example 25], the negative logarithm of the IC50 (pIC50) is 6.43 against HER4 (ErbB4), 8.70 against HER2 (ErbB2), 7.85 with NCI-N87 cell and 6.68 at HER1 (ErbB1).
`Cc1cc(Nc2ncnn3ccc(CC4CCC(N)CC4)c23)ccc1Oc1ccn2ncnc2c1` (stereo not shown) [Example 29] showed a pIC50 in the test with NCI-N87 cell (Homo sapiens, NCI-N87, 72 h) of 7.57.
As for `NC1CCN(Cc2ccn3ncnc(Nc4ccc(Oc5ccn6ncnc6c5)c(C(F)(F)F)c4)c23)CC1` [Example 30], the pIC50 on HER4 (ErbB4) is < 6.00; against HER2 (ErbB2) it was 7.85; against HER1 (ErbB1) it was 6.18.
For `Cc1c(Oc2ccn3ncnc3c2)ccc(Nc2ncnn3ccc(CN4CCC(N)CC4)c23)c1F` [Example 31], the pIC50 at HER4 (ErbB4) is < 6.00; against HER2 (ErbB2) it was 8.52; in the test with NCI-N87 cell (Homo sapiens, NCI-N87, 72 h), 7.51; on HER1 (ErbB1) it was 6.18.
The term T/C denotes the ratio of treated to control. In the case of `NC1CCN(Cc2ccn3ncnc(Nc4ccc(Oc5ccn6ncnc6c5)c(Cl)c4F)c23)CC1` [Example 32], the negative-log IC50 (pIC50) was 7.06 with BT-474 cell; 6.45 at HER4 (ErbB4); 8.70 against HER2 (ErbB2); 7.96 in the test with NCI-N87 cell (Homo sapiens, NCI-N87, 72 h); 6.55 on HER1 (ErbB1). The molecule also gave an RTV in test [1] (day 20) of 0.61 ± 0.06. Also, the T/C in test [1] (day 20) is listed as 7.84%. The TGI in test [1] (day 20) was 106.44%. Moreover, the Tumor volume in test [1] (day 20 (head: Day 21), mean ± SEM) is 101 mm^3 and 101 ± 12 mm^3.
